In ChEMBL document CHEMBL4673176, “Virulence attenuating combination therapy: a potential multi-target synergy approach to treat Pseudomonas aeruginosa infections in cystic fibrosis patients” (RSC Med Chem, 2020):
Blank lines part the entries; values can stand above or below the compound they belong to.

Assays:
[1] = Inhibition of PqsR/PqsD in Pseudomonas aeruginosa PA14 assessed as reduction in biofilm formation by crystal violet assay
[2] = biological target: T1, Transcriptional regulator MvfR (Pseudomonas aeruginosa PA14) (UniProt A0A072ZLE6); test: Inhibition of PqsR in Pseudomonas aeruginosa PA14 assessed as potentiation of meropenem-mediated reduction in biofilm CFU at 10 uM incubated for 24 hrs relative to meropenem alone
T1 sequence (whole entry): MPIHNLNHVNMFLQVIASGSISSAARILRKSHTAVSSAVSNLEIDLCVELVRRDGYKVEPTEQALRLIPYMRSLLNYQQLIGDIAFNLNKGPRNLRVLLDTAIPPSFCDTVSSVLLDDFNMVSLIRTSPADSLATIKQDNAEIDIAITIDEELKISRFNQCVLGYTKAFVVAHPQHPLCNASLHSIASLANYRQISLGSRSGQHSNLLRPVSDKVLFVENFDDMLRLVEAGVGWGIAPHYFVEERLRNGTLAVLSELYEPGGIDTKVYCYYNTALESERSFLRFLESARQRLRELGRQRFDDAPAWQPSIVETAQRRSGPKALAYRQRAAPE

[3] = biological target: T1, Transcriptional regulator MvfR (Pseudomonas aeruginosa PA14); test: Inhibition of PqsR in Pseudomonas aeruginosa PA14 assessed as potentiation of tobramycin-mediated reduction in biofilm CFU at 10 uM incubated for 24 hrs relative to tobramycin alone
Pseudomonas aeruginosa [4] = test: Inhibition of quorum sensing system in Pseudomonas aeruginosa MCC-2080 assessed as reduction in biofilm formation incubated for 24 hrs by crystal violet staining based UV-Vis spectrophotometric method relative to control
[5] = Competitive inhibition of FAM-labelled PscF (69 to 85 residues) binding to Pseudomonas aeruginosa PscE/PscG by fluorescence polarization
Pseudomonas aeruginosa [6] = test: Antibacterial activity against Pseudomonas aeruginosa PAO1 infected in C57BL/6J mouse assessed as mouse survival at 100 uM administered intranasally at the time of infection and every 12 hrs and measured over 96 hrs; assay type: functional; details: PAO1, inhaled or nasal

IC50 [1]: 100 µM
SMILES: CS(=O)(=O)c1nccc(-n2cnnn2)n1

fold change (FC) [2]: 178 | fold change (FC) [3]: 17
SMILES: O=C(CSc1nc2cc([N+](=O)[O-])ccc2[nH]1)Nc1ccc(Oc2ccccc2)cc1

IC85 (Pseudomonas aeruginosa [4]): 100 µM
SMILES: O=c1c(O)c(-c2ccccc2)oc2cc(O)cc(O)c12

SMILES: Cc1cccc2c3c(ccc12)C1=C(C(=O)C3=O)[C@@H](C)CO1 [DIHYDROTANSHINONE I]
IC50 [5]: 680 nM | survival at 100 µM (Pseudomonas aeruginosa [6]): 90%
